Laboratory results from patent publication US5945404A, “21-Substituted steroid compound” (priority 1993, dated 1999).

How the values were obtained:
[1] = system: granuloma; test: Inhibitory Effects on Granuloma Growth (Paper Disk Method); format: in vivo, male Sprague-Dawley rats; details: rat, paper disk, ointment 0.1%, 50 mg once a day, 7 days
Experimental: (§1) Ointment to be tested was prepared usign white soft paraffin as the base and containing dexamethasone at 0.1% concentration.
Groups of 5 male Sprague-Dawley rats each weighing 150-170 g were used. Under ether anesthesia, the dorsum of animals was closely clipped, and medianly incised. After each one pre-weighed paper disk (8-mm diameter, 1-mm thick, weighing about 30 mg; Toyo-Roshi filter paper) was inserted subcutaneously into both sides of the dorsal incision, the incision was sutured. In order to prevent bacterial infection, penicillin G potassium salt (2,000 units) per rat was intramascularly injected after the surgery. Base or ointment to be tested (50 mg each) was rubbed carefully into the skin over the paper disk inserted site, for 30 seconds once a day for the duration of 7 days. Rats were slipped plastic cangs on to prevent them from licking the drug applied sites. On the 8th day of the test, rats were sacrificed under ether anesthesia, and granulomas were carefully excised. Granulomas were dried at 40° C. for 24 h, and their dry weights were recorded.
Inhibitory effects of dexamethasone derivatives on the weight increase of granuloma of experimental animals as compared with those of control animals are shown as per cent of inhibition ov er the control in Table 1. Figures wihth asterisks in the table indicate signfiicant difference. The same will be applied to the following other tables.

[2] = system: croton oil-induced ear edema; test: Inhibitory Effects on Croton oil-induced Ear Lobe Edema; format: in vivo, male ddY mice; details: Table 5, ointment 20 mg, mouse ear lobe
Experimental: as §1
Groups of 10 male ddY mice each weighing about 25 g were used. Ointment to be tested (20 mg) was rubbed in the right-side ear lobe, and, 30 min later, a drop of 4 % croton oil dissolved in either was applied to it. Thirty minute after that treatment, mice were sacrificed. Ear lobes on both sides were punched out in the size of 5-mm diameter, and weighed. Results were expressed by calculating the per cent of weight change of the right edema ear as compared with that of the untreated left ear, and compared with that of the control.

SMILES	Weight of granuloma, per cent of change of the controls [1] [per cent]	Percent of inhibition of ear edema [2] [%]	other results
CC(=O)OC[C@H]1O[C@H](OCC(=O)[C@@]2(O)[C@H](C)C[C@H]3[C@@H]4CCC5=CC(=O)C=C[C@]5(C)[C@@]4(F)[C@@H](O)C[C@@]32C)[C@@H](OC(C)=O)[C@@H](OC(C)=O)[C@@H]1OC(C)=O [Compound 29, mannosyldexamethasone (per Ac derivative)]	-35.7 ± 5.6	22.1 ± 4.7	–
CC(=O)N[C@H]1C(OCC(=O)[C@@]2(O)[C@H](C)C[C@H]3[C@@H]4CCC5=CC(=O)C=C[C@]5(C)[C@@]4(F)[C@@H](O)C[C@@]32C)O[C@H](CO)[C@H](O)[C@@H]1O (stereo partly shown) [Compound 44', N-acetylgalactosaminyldexamethasone]	–	–	Weight of granuloma, per cent of change of the controls ([1]; listed as 44'): 3.3 ± 4.7 per cent; Percent of inhibition of ear edema ([2]; listed as 44'): 7.9 ± 7.2%
CC(=O)N[C@H]1C(OCC(=O)[C@@]2(O)[C@H](C)C[C@H]3[C@@H]4CCC5=CC(=O)C=C[C@]5(C)[C@@]4(F)[C@@H](O)C[C@@]32C)O[C@H](CO)[C@H](O)[C@@H]1O (stereo partly shown) [Compound 45', N-acetylgalactosaminyldexamethasone]	–	–	Weight of granuloma, per cent of change of the controls ([1]; listed as 45'): -11.8 ± 10.1 per cent; Percent of inhibition of ear edema ([2]; listed as 45'): 21.0 ± 6.4%
CC(=O)OC1C(C)OC(OCC(=O)C2(O)C(C)CC3C4CCC5=CC(=O)C=CC5(C)C4(F)C(O)CC32C)C(OC(C)=O)C1OC(C)=O (stereo not drawn) [Compound 74β, fucosyldexamethasone]	1.6 ± 16.2	14.1 ± 4.5	–
CC1OC(OCC(=O)C2(O)C(C)CC3C4CCC5=CC(=O)C=CC5(C)C4(F)C(O)CC32C)C(O)C(O)C1O (stereo not drawn) [Compound 75β, β-fucosyldexamethasone]	-10.0 ± 8.8	22.0 ± 4.7	–
